Source: PubChem BioAssay (NCI)
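48-hour exposure; five concentrations; linearly interpolated endpoints. TGI: concentration producing complete growth inhibition.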

Tests used:
Assay in all cases: NCI-60 cell line screen, 48 h
NCI/ADR-RES ovarian = system: NCI/ADR-RES ovarian
UO-31 renal = system: UO-31 renal
T-47D breast = system: T-47D breast
OVCAR-4 ovarian = system: OVCAR-4 ovarian
K-562 leukemia = system: K-562 leukemia
UACC-257 melanoma = system: UACC-257 melanoma
MDA-N = system: MDA-N
U251 CNS = system: U251 CNS
ACHN renal = system: ACHN renal
NCI-H522 lung = system: NCI-H522 lung
CCRF-CEM leukemia = system: CCRF-CEM leukemia
A498 renal = system: A498 renal
MALME-3M melanoma = system: MALME-3M melanoma
MDA-MB-435 = system: MDA-MB-435
UACC-62 melanoma = system: UACC-62 melanoma
SF-295 CNS = system: SF-295 CNS
TK-10 renal = system: TK-10 renal
SK-MEL-28 melanoma = system: SK-MEL-28 melanoma
COLO 205 colon = system: COLO 205 colon
OVCAR-8 ovarian = system: OVCAR-8 ovarian
DU-145 prostate = system: DU-145 prostate
SF-539 CNS = system: SF-539 CNS
RPMI-8226 leukemia = system: RPMI-8226 leukemia
SK-MEL-5 melanoma = system: SK-MEL-5 melanoma
HCT-116 colon = system: HCT-116 colon
HS 578T breast = system: HS 578T breast
HT29 colon = system: HT29 colon
BT-549 breast = system: BT-549 breast
RXF 393 renal = system: RXF 393 renal
IGROV1 ovarian = system: IGROV1 ovarian
A549 NSCLC = system: A549 NSCLC
SF-268 CNS = system: SF-268 CNS
NCI-H460 lung = system: NCI-H460 lung
LOX IMVI melanoma = system: LOX IMVI melanoma
SN12C renal = system: SN12C renal
NCI-H23 lung = system: NCI-H23 lung
OVCAR-5 ovarian = system: OVCAR-5 ovarian
PC-3 prostate = system: PC-3 prostate
CAKI-1 renal = system: CAKI-1 renal
SK-MEL-2 melanoma = system: SK-MEL-2 melanoma
SK-OV-3 ovarian = system: SK-OV-3 ovarian
786-0 renal = system: 786-0 renal
HCC-2998 colon = system: HCC-2998 colon
HL-60(TB) leukemia = system: HL-60(TB) leukemia
EKVX NSCLC = system: EKVX NSCLC
MDA-MB-231 breast = system: MDA-MB-231 breast
OVCAR-3 ovarian = system: OVCAR-3 ovarian
KM12 colon = system: KM12 colon
SNB-75 CNS = system: SNB-75 CNS
M14 melanoma = system: M14 melanoma
SNB-19 CNS = system: SNB-19 CNS
HOP-62 NSCLC = system: HOP-62 NSCLC
SW-620 colon = system: SW-620 colon
NCI-H226 lung = system: NCI-H226 lung
HCT-15 colon = system: HCT-15 colon
HOP-92 NSCLC = system: HOP-92 NSCLC
MCF7 breast = system: MCF7 breast
MOLT-4 leukemia = system: MOLT-4 leukemia

Measured: TGI

CC(=O)OC[C@@]1(C)[C@@H]2[C@@H]3[C@@]4(CO[C@]3(C)C(=O)[C@@]3(OC(C)=O)C[C@H](C)[C@H](OC(C)=O)[C@@H]3[C@H]4OC(C)=O)[C@H](OC(=O)c3ccccc3)C[C@@H]21
> 100 µM: NCI/ADR-RES ovarian | UO-31 renal | T-47D breast | OVCAR-4 ovarian | K-562 leukemia | UACC-257 melanoma | MDA-N | U251 CNS | ACHN renal | NCI-H522 lung | CCRF-CEM leukemia | A498 renal | MALME-3M melanoma | MDA-MB-435 | UACC-62 melanoma | SF-295 CNS | TK-10 renal | SK-MEL-28 melanoma | COLO 205 colon | OVCAR-8 ovarian | DU-145 prostate | SF-539 CNS | RPMI-8226 leukemia | SK-MEL-5 melanoma | HCT-116 colon | HS 578T breast | HT29 colon | BT-549 breast | RXF 393 renal | IGROV1 ovarian | A549 NSCLC | SF-268 CNS | NCI-H460 lung | LOX IMVI melanoma | SN12C renal | NCI-H23 lung | OVCAR-5 ovarian | PC-3 prostate | CAKI-1 renal | SK-MEL-2 melanoma | SK-OV-3 ovarian | 786-0 renal | HCC-2998 colon | HL-60(TB) leukemia | EKVX NSCLC | MDA-MB-231 breast | OVCAR-3 ovarian | KM12 colon | SNB-75 CNS | M14 melanoma | SNB-19 CNS | HOP-62 NSCLC | SW-620 colon | NCI-H226 lung | HCT-15 colon | HOP-92 NSCLC | MCF7 breast

C=C1[C@@H](OC(C)=O)/C=C/C2C3C(=O)[C@@](C)(OC(C)=O)[C@H]([C@H](OC(C)=O)[C@]4(O)[C@@H](C)C(=O)O[C@H]4[C@H]1Cl)[C@@]23C (some centres undefined)
> 100 µM: NCI/ADR-RES ovarian | UO-31 renal | T-47D breast | OVCAR-4 ovarian | K-562 leukemia | UACC-257 melanoma | MDA-N | U251 CNS | ACHN renal | NCI-H522 lung | CCRF-CEM leukemia | A498 renal | MALME-3M melanoma | MDA-MB-435 | UACC-62 melanoma | SF-295 CNS | TK-10 renal | SK-MEL-28 melanoma | COLO 205 colon | OVCAR-8 ovarian | DU-145 prostate | RPMI-8226 leukemia | SK-MEL-5 melanoma | HCT-116 colon | HS 578T breast | HT29 colon | BT-549 breast | RXF 393 renal | IGROV1 ovarian | A549 NSCLC | SF-268 CNS | NCI-H460 lung | LOX IMVI melanoma | MOLT-4 leukemia | SN12C renal | NCI-H23 lung | OVCAR-5 ovarian | PC-3 prostate | CAKI-1 renal | SK-MEL-2 melanoma | SK-OV-3 ovarian | 786-0 renal | HCC-2998 colon | EKVX NSCLC | MDA-MB-231 breast | OVCAR-3 ovarian | KM12 colon | SNB-75 CNS | M14 melanoma | SNB-19 CNS | HOP-62 NSCLC | SW-620 colon | NCI-H226 lung | HCT-15 colon | HOP-92 NSCLC

C#CCNCC(=O)O
> 100 µM: NCI/ADR-RES ovarian | UO-31 renal | T-47D breast | OVCAR-4 ovarian | UACC-257 melanoma | MDA-N | U251 CNS | ACHN renal | NCI-H522 lung | CCRF-CEM leukemia | A498 renal | MALME-3M melanoma | MDA-MB-435 | UACC-62 melanoma | SF-295 CNS | TK-10 renal | SK-MEL-28 melanoma | COLO 205 colon | OVCAR-8 ovarian | DU-145 prostate | SF-539 CNS | RPMI-8226 leukemia | SK-MEL-5 melanoma | HCT-116 colon | HS 578T breast | HT29 colon | BT-549 breast | RXF 393 renal | IGROV1 ovarian | A549 NSCLC | SF-268 CNS | MOLT-4 leukemia | NCI-H23 lung | OVCAR-5 ovarian | PC-3 prostate | CAKI-1 renal | SK-MEL-2 melanoma | SK-OV-3 ovarian | 786-0 renal | HCC-2998 colon | EKVX NSCLC | MDA-MB-231 breast | OVCAR-3 ovarian | KM12 colon | M14 melanoma | SNB-19 CNS | HOP-62 NSCLC | SW-620 colon | NCI-H226 lung | HCT-15 colon | HOP-92 NSCLC | MCF7 breast
